Measured values taken from ChEMBL document CHEMBL5512642, “Novel triterpenoid pyrones, phthalimides and phthalates are selectively cytotoxic in CCRF-CEM cancer cells - Synthesis, potency, and mitochondrial mechanism of action” (Eur J Med Chem, 2024).
pIC50: −log10 of the molar value.

Key:
HCT-116 = assay: Cytotoxicity against human HCT-116 cells assessed as reduction in cell viability incubated for 72 hrs by MTS assay; type: functional, cell-based; conditions: HCT-116, 72 h
[1] = Cytotoxicity against human BJ cells assessed as reduction in cell viability incubated for 72 hrs by MTS assay; type: toxicity, cell-based
[2] = Cytotoxicity against human MRC5 cells assessed as reduction in cell viability incubated for 72 hrs by MTS assay; type: toxicity, cell-based
CEM-DNR = assay: Cytotoxicity against human CEM-DNR cells assessed as reduction in cell viability incubated for 72 hrs by MTS assay; type: functional, cell-based
CCRF-CEM = assay: Cytotoxicity against human CCRF-CEM cells assessed as reduction in cell viability incubated for 72 hrs by MTS assay; type: functional, cell-based
U2OS = assay: Cytotoxicity against human U2OS cells assessed as reduction in cell viability incubated for 72 hrs by MTS assay; type: functional, cell-based
K562 = assay: Cytotoxicity against human K562 cells assessed as reduction in cell viability incubated for 72 hrs by MTS assay; type: functional, cell-based; conditions: K562, 72 h
HCT 116 TP53(-/-) = assay: Cytotoxicity against human HCT116-p53-null cells assessed as reduction in cell viability incubated for 72 hrs by MTS assay; type: functional, cell-based
[3] = Cytotoxicity against human K562-Tax cells assessed as reduction in cell viability incubated for 72 hrs by MTS assay; type: functional, cell-based
A549 = assay: Cytotoxicity against human A549 cells assessed as reduction in cell viability incubated for 72 hrs by MTS assay; type: functional, cell-based; conditions: A549, 72 h

Structure (SMILES) | pIC50 (HCT-116) | IC50 at 72 h [1] [µM] | IC50 at 72 h [2] [µM] | pIC50 (CEM-DNR) | pIC50 (CCRF-CEM) | pIC50 (U2OS) | pIC50 (K562) | pIC50 (HCT 116 TP53(-/-)) | pIC50 [3] | pIC50 (A549)
COC(=O)c1cc(C(F)(F)F)c2c(c1C(=O)OC)C(C)(C)[C@@H]1CC[C@]3(C)[C@H](CC=C4[C@@H]5[C@@H](C)[C@H](C)CC[C@]5(C(=O)O)CC[C@]43C)[C@@]1(C)C2 | 4.42 | > 50 | > 50 | < 4.30 | 5.29 | 4.62 | 4.55 | 4.59 | < 4.30 | 4.77
C[C@H]1[C@H](C)CC[C@]2(C(=O)O)CC[C@]3(C)C(=CC[C@@H]4[C@@]5(C)Cc6c(C(F)(F)F)cc7c(c6C(C)(C)[C@@H]5CC[C@]43C)C(=O)N(c3ccccc3)C7=O)[C@H]12 | < 4.30 | > 50 | > 50 | < 4.30 | < 4.30 | < 4.30 | < 4.30 | < 4.30 | < 4.30 | < 4.30
CC(C)[C@@H]1CC[C@]2(C(=O)O)CC[C@]3(C)[C@H](CC[C@@H]4[C@@]5(C)CC(C(=O)C(F)(F)F)C(=O)C(C)(C)[C@@H]5CC[C@]43C)[C@@H]12 (some centres undefined) | 4.64 | 43 | 46 |  | 5.07 | 4.60 | 4.54 | 4.59 |  | 4.96
C=C(C)[C@@H]1CC[C@]2(C(=O)O)CC[C@]3(C)[C@H](CC[C@@H]4[C@@]5(C)CC(C(=O)C(F)(F)F)C(=O)C(C)(C)[C@@H]5CC[C@]43C)[C@@H]12 (some centres undefined) | 4.62 | > 50 | > 50 |  | 5.14 | 4.52 | 4.89 | 4.52 |  | 4.92
C[C@H]1[C@H](C)CC[C@]2(C(=O)O)CC[C@]3(C)C(=CC[C@@H]4[C@@]5(C)CC(C(=O)C(F)(F)F)C(=O)C(C)(C)[C@@H]5CC[C@]43C)[C@H]12 (some centres undefined) | 4.46 | > 50 | > 50 |  | 5.08 | < 4.30 | 4.64 | 4.37 |  | 4.64
